Laboratory results as given in paper PMC7031696 (Cell chemical biology, 2019).
Where two headings read alike, the source gives them in different places.

Tests used:
[1] = test system: asynchronous 3D7-A10 parasite cultures; assay: Standard 72-h exposure asexual blood stage susceptibility assay (IC50^72h); format: cell-based, Plasmodium falciparum; settings: Plasmodium falciparum, 3D7, 72 h, read-out: Overall (72hr assay) Mean IC50 (IC50^72h)
[2] = test system: 3D7-MR4 trophozoite parasite-infected RBCs; assay: Metabolomic profiling (hydrophilic metabolite changes, UHPLC-MS); format: cell-based, Plasmodium falciparum
[3] = test system: Plasmodium falciparum 3D7-A10 parasites; assay: Stage specificity assay (8-h exposure of synchronized stages, IC50^8h); format: cell-based; settings: for IC50: Plasmodium falciparum

## Cc1ccc(Oc2ncccc2C(=O)Nc2cccc3cccnc23)c(C)c1 [MMV020746]
[1]
  IC50: 0.0568 µM
[2]; 10 × IC50^72h, 2.5 hr, trophozoites
  peptide levels (hemoglobin catabolism signature): decreased peptide levels
[2]; metabolite 3-phosphoglycerate, log2 fold change
  Log2(fold changes) 3-phosphoglycerate: -0.8487
[2]; metabolite 4-Pyridoxic acid, log2 fold change
  Log2(fold changes) 4-Pyridoxic acid: -0.4495
[2]; metabolite 4-aminobutyrate, log2 fold change
  Log2(fold changes) 4-aminobutyrate: -0.1236
[2]; metabolite 4-phosphopantetheine, log2 fold change
  Log2(fold changes) 4-phosphopantetheine: 0.0000
[2]; metabolite 4-phosphopantothenate, log2 fold change
  Log2(fold changes) 4-phosphopantothenate: -0.7722
[2]; metabolite 5-aminopentanoic acid, log2 fold change
  Log2(fold changes) 5-aminopentanoic acid: 0.0000
[2]; metabolite 5-methyl-THF, log2 fold change
  Log2(fold changes) 5-methyl-THF: 0.0000
[2]; metabolite 5-phosphoribosyl-1-pyrophosphate, log2 fold change
  Log2(fold changes) 5-phosphoribosyl-1-pyrophosphate: 0.0000
[2]; metabolite 6-phospho-D-gluconate, log2 fold change
  Log2(fold changes) 6-phospho-D-gluconate: -0.3888
[2]; metabolite HVDD
  Log2(fold change) HVDD: -4.2936
[2]; metabolite Hydroxyisocaproic acid
  Log2(fold change) Hydroxyisocaproic acid: 0.0000
[2]; metabolite IDP
  Log2(fold change) IDP: 0.0000
[2]; metabolite IMP
  Log2(fold change) IMP: -0.0604
[2]; metabolite Inositol
  Log2(fold change) Inositol: 0.0000
[2]; metabolite Isopentyl-PP
  Log2(fold change) Isopentyl-PP: -0.6932
[2]; metabolite L-arginino-succinate
  Log2(fold change) L-arginino-succinate: -0.2156
[2]; metabolite LD
  Log2(fold change) LD: 0.1860
[2]; metabolite Myristoyl/tetradecanoyl-CoA
  Log2(fold change) Myristoyl/tetradecanoyl-CoA: 0.0000
[2]; metabolite N-Acetyl-L-alanine
  Log2(fold change) N-Acetyl-L-alanine: 0.0990
[2]; metabolite N-acetyl-L-ornithine
  Log2(fold change) N-acetyl-L-ornithine: -1.5863
[2]; metabolite N-acetyl-glucosamine-1/6-phosphate
  Log2(fold change) N-acetyl-glucosamine-1/6-phosphate: 0.3354
[2]; metabolite N-acetyl-glutamate
  Log2(fold change) N-acetyl-glutamate: -0.0291
[2]; metabolite N-acetyl-glutamine
  Log2(fold change) N-acetyl-glutamine: 0.3326
[2]; metabolite N-carbamoyl-L-aspartate
  Log2(fold change) N-carbamoyl-L-aspartate: -0.0111
[2]; metabolite NAD+
  Log2(fold change) NAD+: -0.2290
[2]; metabolite NADH
  Log2(fold change) NADH: 3.2383
[2]; metabolite NADP+
  Log2(fold change) NADP+: -0.2621
[2]; metabolite NADPH
  Log2(fold change) NADPH: 2.9387
[2]; metabolite O-acetyl-L-serine
  Log2(fold change) O-acetyl-L-serine: -0.1299
[2]; metabolite Octoluse 8/1P
  Log2(fold change) Octoluse 8/1P: -0.0750
[2]; metabolite Octoluse Bisphosphate
  Log2(fold change) Octoluse Bisphosphate: 0.1477
[2]; metabolite PD
  Log2(fold change) PD: -2.6591
[2]; metabolite PE
  Log2(fold change) PE: -2.3902
[2]; metabolite PEE
  Log2(fold change) PEE: -2.3026
[2]; metabolite PEEK
  Log2(fold change) PEEK: -2.5604
[2]; metabolite PVNF
  Log2(fold change) PVNF: -4.8059
[2]; metabolite Pyroglutamic acid
  Log2(fold change) Pyroglutamic acid: 0.1917
[2]; metabolite Pyrophosphate
  Log2(fold change) Pyrophosphate: 0.0000
[2]; metabolite Ribose-5-phosphate
  Log2(fold change) Ribose-5-phosphate: -0.7820
[2]; metabolite S-adenosyl-L-homocysteine
  Log2(fold change) S-adenosyl-L-homocysteine: -0.0800
[2]; metabolite S-adenosyl-L-methioninamine
  Log2(fold change) S-adenosyl-L-methioninamine: -2.2715
[2]; metabolite S-adenosyl-L-methionine
  Log2(fold change) S-adenosyl-L-methionine: 0.0000
[2]; metabolite S-methyl-5'-thioadenosine
  Log2(fold change) S-methyl-5'-thioadenosine: 0.5248
[2]; metabolite SD
  Log2(fold change) SD: -1.2335
[2]; metabolite SDL
  Log2(fold change) SDL: 0.0000
[2]; metabolite SID
  Log2(fold change) SID: -1.9821
[2]; metabolite Sedoheptulose bisphosphate
  Log2(fold change) Sedoheptulose bisphosphate: -0.9337
[2]; metabolite Thiamine pyrophosphate
  Log2(fold change) Thiamine pyrophosphate: -0.1414
[2]; metabolite UDP-D-glucose, log2 fold change
  Log2(fold changes) UDP-D-glucose: 0.0347
[2]; metabolite UDP-D-glucuronate, log2 fold change
  Log2(fold changes) UDP-D-glucuronate: -0.1265
[2]; metabolite UDP-N-acetyl-glucosamine, log2 fold change
  Log2(fold changes) UDP-N-acetyl-glucosamine: -0.1353
[2]; metabolite UDP, log2 fold change
  Log2(fold changes) UDP: -0.5234
[2]; metabolite UMP, log2 fold change
  Log2(fold changes) UMP: 0.1786
[2]; metabolite UTP, log2 fold change
  Log2(fold changes) UTP: 0.0000
[2]; metabolite hydroxyphenylpyruvate
  Log2(fold change) hydroxyphenylpyruvate: 0.0000
[2]; metabolite hydroxyproline/Aminolevulinate
  Log2(fold change) hydroxyproline/Aminolevulinate: -0.2593
[2]; metabolite hypoxanthine
  Log2(fold change) hypoxanthine: 0.0518
[2]; metabolite indole
  Log2(fold change) indole: 0.0000
[2]; metabolite inosine
  Log2(fold change) inosine: -0.1327
[2]; metabolite isoleucine
  Log2(fold change) isoleucine: 0.0000
[2]; metabolite lactate
  Log2(fold change) lactate: -0.6990
[2]; metabolite leucine
  Log2(fold change) leucine: 0.0000
[2]; metabolite lysine
  Log2(fold change) lysine: -2.2531
[2]; metabolite malate
  Log2(fold change) malate: -0.6987
[2]; metabolite maleic acid
  Log2(fold change) maleic acid: -0.7709
[2]; metabolite methionine
  Log2(fold change) methionine: -0.0286
[2]; metabolite myo-inositol
  Log2(fold change) myo-inositol: -0.7655
[2]; metabolite nicotinamide mononucleotide
  Log2(fold change) nicotinamide mononucleotide: -0.5765
[2]; metabolite nicotinate
  Log2(fold change) nicotinate: -0.1328
[2]; metabolite ornithine
  Log2(fold change) ornithine: -0.3857
[2]; metabolite orotate
  Log2(fold change) orotate: -0.1387
[2]; metabolite orotidine-5'-phosphate
  Log2(fold change) orotidine-5'-phosphate: 0.0782
[2]; metabolite oxaloacetate
  Log2(fold change) oxaloacetate: -0.6442
[2]; metabolite p-aminobenzoate
  Log2(fold change) p-aminobenzoate: 0.0000
[2]; metabolite p-hydroxybenzoate
  Log2(fold change) p-hydroxybenzoate: 0.0000
[2]; metabolite pantothenate
  Log2(fold change) pantothenate: -0.1112
[2]; metabolite phenylalanine
  Log2(fold change) phenylalanine: -0.4829
[2]; metabolite phenylpyruvate
  Log2(fold change) phenylpyruvate: 0.0000
[2]; metabolite phosphoenolpyruvate
  Log2(fold change) phosphoenolpyruvate: -0.5858
[2]; metabolite prephenate
  Log2(fold change) prephenate: -0.3824
[2]; metabolite proline
  Log2(fold change) proline: -0.5702
[2]; metabolite pyridoxine
  Log2(fold change) pyridoxine: -0.1642
[2]; metabolite pyruvate
  Log2(fold change) pyruvate: -1.5001
[2]; metabolite riboflavin
  Log2(fold change) riboflavin: 0.4413
[2]; metabolite ribose
  Log2(fold change) ribose: -0.0174
[2]; metabolite ribose-phosphate
  Log2(fold change) ribose-phosphate: -1.1321
[2]; metabolite ribulose-5-phosphate
  Log2(fold change) ribulose-5-phosphate: -0.7375
[2]; metabolite serine
  Log2(fold change) serine: -0.1379
[2]; metabolite sn-glycerol-3-phosphate
  Log2(fold change) sn-glycerol-3-phosphate: 0.0529
[2]; metabolite succinate/Methylmalonic acid
  Log2(fold change) succinate/Methylmalonic acid: -0.5504
[2]; metabolite succinyl-CoA/methylmalonyl-CoA
  Log2(fold change) succinyl-CoA/methylmalonyl-CoA: 0.0000
[2]; metabolite taurine
  Log2(fold change) taurine: 0.3831
[2]; metabolite thiamine
  Log2(fold change) thiamine: -0.5873
[2]; metabolite threonine/homoserine
  Log2(fold change) threonine/homoserine: -0.5084
[2]; metabolite thymidine
  Log2(fold change) thymidine: 0.0000
[2]; metabolite thymine, log2 fold change
  Log2(fold changes) thymine: 0.0000
[2]; metabolite trehalose-6-Phosphate, log2 fold change
  Log2(fold changes) trehalose-6-Phosphate: 0.0000
[2]; metabolite tryptophan, log2 fold change
  Log2(fold changes) tryptophan: -0.7516
[2]; metabolite tyrosine, log2 fold change
  Log2(fold changes) tyrosine: -0.2515
[2]; metabolite uridine, log2 fold change
  Log2(fold changes) uridine: 0.0000
[3]; 3D7-A10
  Ratio lowest IC50 8hr/IC50 72hr: 221.5
[3]; 3D7, read-out: Early rings IC50 (IC50^8h), 8-h exposure 0–8 hr, bound given in μM
  IC50: > 25 µM
[3]; 3D7, read-out: Early trophozoites Mean IC50 (IC50^8h), 8-h exposure 16–24 hr, 3D7-A10, survival at 60 h
  IC50: 12.6 µM
[3]; 3D7, read-out: Late rings IC50 (IC50^8h), 8-h exposure 8–16 hr, bound given in μM
  IC50: > 25 µM
[3]; 3D7, read-out: Late trophozoites IC50 (IC50^8h), 8-h exposure 24–32 hr, bound given in μM
  IC50: > 25 µM
[3]; 3D7, read-out: Schizonts IC50 (IC50^8h), 8-h exposure 32–40 hr, bound given in μM
  IC50: > 25 µM
[3]; most susceptible stages
  IC50^8h relative to IC50^72h value: > 28 fold
